# In ChEMBL document CHEMBL4308841, “Synthesis, in vitro antiproliferative activity, and kinase inhibitory effects of pyrazole-containing diarylureas and diarylamides” (Eur J Med Chem, 2018):
# What was measured:
# MDA-MB-468 [1] = assay: Growth inhibition of human MDA-MB-468 cells assessed as cell growth at 0.01 uM incubated for 48 hrs by sulforhodamine B assay relative to control; type: functional; conditions: MDA-MB-468, 48 h, read-out: Activity
# SF-268 = assay: Growth inhibition of human SF268 cells assessed as cell growth at 0.1 uM incubated for 48 hrs by sulforhodamine B assay relative to control; type: functional; conditions: SF-268, 48 h, read-out: Activity
# SF-295 = assay: Growth inhibition of human SF295 cells assessed as cell growth at 0.01 uM incubated for 48 hrs by sulforhodamine B assay relative to control; type: functional; conditions: SF-295, 48 h, read-out: Activity
# LOX IMVI = assay: Growth inhibition of human LOXIMVI cells assessed as cell growth at 0.1 uM incubated for 48 hrs by sulforhodamine B assay relative to control; type: functional; conditions: read-out: Activity
# SK-MEL-28 = assay: Growth inhibition of human SK-MEL-28 cells incubated for 48 hrs by sulforhodamine B assay; type: functional, cell-based; conditions: SK-MEL-28, 48 h
# HCT-15 = assay: Growth inhibition of human HCT15 cells incubated for 48 hrs by sulforhodamine B assay; type: functional, cell-based; conditions: HCT-15, 48 h
# MDA-MB-468 [2] = assay: Growth inhibition of human MDA-MB-468 cells assessed as cell growth at 100 uM incubated for 48 hrs by sulforhodamine B assay relative to control; type: functional; conditions: MDA-MB-468, 48 h, read-out: Activity
# OVCAR-3 = assay: Growth inhibition of human OVCAR3 cells assessed as cell growth at 0.01 uM incubated for 48 hrs by sulforhodamine B assay relative to control; type: functional; conditions: OVCAR-3, 48 h, read-out: Activity
# SR = assay: Growth inhibition of human SR cells assessed as cell growth at 0.01 uM incubated for 48 hrs by sulforhodamine B assay relative to control; type: functional; conditions: read-out: Activity
# NCI-H23 [3] = assay: Growth inhibition of human NCI-H23 cells incubated for 48 hrs by sulforhodamine B assay; type: functional, cell-based; conditions: NCI-H23, 48 h
# HCC 2998 [4] = assay: Growth inhibition of human HCC2998 cells assessed as cell growth at 0.01 uM incubated for 48 hrs by sulforhodamine B assay relative to control; type: functional; conditions: HCC 2998, 48 h, read-out: Activity
# T47D = assay: Growth inhibition of human T47D cells assessed as cell growth at 100 uM incubated for 48 hrs by sulforhodamine B assay relative to control; type: functional; conditions: read-out: Activity
# PC-3 [5] = assay: Growth inhibition of human PC3 cells assessed as cell growth at 100 uM incubated for 48 hrs by sulforhodamine B assay relative to control; type: functional; conditions: PC-3, 48 h, read-out: Activity
# HOP-62 = assay: Growth inhibition of human HOP62 cells assessed as cell growth at 1 uM incubated for 48 hrs by sulforhodamine B assay relative to control; type: functional; conditions: HOP-62, 48 h, read-out: Activity
# HT-29 = assay: Growth inhibition of human HT-29 cells assessed as cell growth at 1 uM incubated for 48 hrs by sulforhodamine B assay relative to control; type: functional; conditions: HT-29, 48 h, read-out: Activity
# MOLT-4 = assay: Growth inhibition of human MOLT4 cells assessed as cell growth at 100 uM incubated for 48 hrs by sulforhodamine B assay relative to control; type: functional; conditions: MOLT-4, 48 h, read-out: Activity
# NCI-H460 = assay: Growth inhibition of human NCI-H460 cells assessed as cell growth at 0.01 uM incubated for 48 hrs by sulforhodamine B assay relative to control; type: functional; conditions: NCI-H460, 48 h, read-out: Activity
# HCC 2998 [6] = assay: Growth inhibition of human HCC2998 cells incubated for 48 hrs by sulforhodamine B assay; type: functional, cell-based; conditions: HCC 2998, 48 h
# SK-MEL-5 [7] = assay: Growth inhibition of human SK-MEL-5 cells assessed as cell growth at 0.1 uM incubated for 48 hrs by sulforhodamine B assay relative to control; type: functional; conditions: SK-MEL-5, 48 h, read-out: Activity
# NCI-H23 [8] = assay: Growth inhibition of human NCI-H23 cells assessed as cell growth at 1 uM incubated for 48 hrs by sulforhodamine B assay relative to control; type: functional; conditions: NCI-H23, 48 h, read-out: Activity
# SK-MEL-5 [9] = assay: Growth inhibition of human SK-MEL-5 cells assessed as cell growth at 0.01 uM incubated for 48 hrs by sulforhodamine B assay relative to control; type: functional; conditions: SK-MEL-5, 48 h, read-out: Activity
# SW-620 = assay: Growth inhibition of human SW620 cells assessed as cell growth at 0.1 uM incubated for 48 hrs by sulforhodamine B assay relative to control; type: functional; conditions: SW-620, 48 h, read-out: Activity
# HCT-116 = assay: Growth inhibition of human HCT116 cells assessed as cell growth at 100 uM incubated for 48 hrs by sulforhodamine B assay relative to control; type: functional; conditions: HCT-116, 48 h, read-out: Activity
# HL-60(TB) [10] = assay: Growth inhibition of human HL-60(TB) cells assessed as cell growth at 0.01 uM incubated for 48 hrs by sulforhodamine B assay relative to control; type: functional; conditions: HL-60, 48 h, read-out: Activity
# PC-3 [11] = assay: Growth inhibition of human PC3 cells incubated for 48 hrs by sulforhodamine B assay; type: functional, cell-based; conditions: PC-3, 48 h
# M14 = assay: Growth inhibition of human M14 cells incubated for 48 hrs by sulforhodamine B assay; type: functional, cell-based; conditions: M14, 48 h
# HL-60(TB) [12] = assay: Growth inhibition of human HL-60(TB) cells assessed as cell growth at 1 uM incubated for 48 hrs by sulforhodamine B assay relative to control; type: functional; conditions: HL-60, 48 h, read-out: Activity
# OVCAR-8 = assay: Growth inhibition of human OVCAR8 cells assessed as cell growth at 1 uM incubated for 48 hrs by sulforhodamine B assay relative to control; type: functional; conditions: OVCAR-8, 48 h, read-out: Activity
# SNB-19 = assay: Growth inhibition of human SNB19 cells assessed as cell growth at 100 uM incubated for 48 hrs by sulforhodamine B assay relative to control; type: functional; conditions: SNB-19, 48 h, read-out: Activity
# [13] = read-out: LC50 (the source's name)
# [14] = read-out: pLC50 (the source's name) (converted)
structure (smiles),measurement,setting,value
O=C(Nc1cccc(-n2cc(-c3ccncc3)c(-c3cc(O)cc(Cl)c3)n2)c1)Nc1ccc(Cl)c(C(F)(F)F)c1,growth at 0.01 µM,MDA-MB-468 [1],93%
same,growth at 0.1 µM,SF-268,93%
same,growth at 0.01 µM,SF-295,58%
same,growth at 0.1 µM,LOX IMVI,95%
same,GI50,SK-MEL-28; read-out: GI50,2.01 µM
same,CC50,SK-MEL-28; [13],25.5 µM
same,TGI,SK-MEL-28; read-out: TGI,62 µM
same,GI50,SK-MEL-28; read-out: pGI50 (converted),2 µM
same,CC50,SK-MEL-28; [14],26.3 µM
same,TGI,SK-MEL-28; read-out: pTGI (converted),6.17 µM
same,GI50,HCT-15; read-out: GI50,2.21 µM
same,CC50,HCT-15; [13],50.6 µM
same,TGI,HCT-15; read-out: TGI,60.1 µM
same,GI50,HCT-15; read-out: pGI50 (converted),2.82 µM
same,CC50,HCT-15; [14],60.3 µM
same,TGI,HCT-15; read-out: pTGI (converted),6.03 µM
same,growth at 100 µM,MDA-MB-468 [2],-29%
same,growth at 0.01 µM,OVCAR-3,101%
same,growth at 0.01 µM,SR,105%
same,GI50,NCI-H23 [3]; read-out: GI50,2.58 µM
same,LC50,NCI-H23 [3]; read-out: LC50,45.1 µM
same,TGI,NCI-H23 [3]; read-out: TGI,74 µM
same,GI50,NCI-H23 [3]; read-out: pGI50 (converted),2.57 µM
same,LC50,NCI-H23 [3]; read-out: pLC50 (converted),45.7 µM
same,TGI,NCI-H23 [3]; read-out: pTGI (converted),7.41 µM
same,growth at 0.01 µM,HCC 2998 [4],97%
same,growth at 100 µM,T47D,-52%
same,growth at 100 µM,PC-3 [5],-83%
same,growth at 1 µM,HOP-62,96%
same,growth at 1 µM,HT-29,99%
same,growth at 100 µM,MOLT-4,-39%
same,growth at 0.01 µM,NCI-H460,101%
same,GI50,HCC 2998 [6]; read-out: GI50,3.93 µM
same,CC50,HCC 2998 [6]; [13],43 µM
same,TGI,HCC 2998 [6]; read-out: TGI,13.4 µM
same,GI50,HCC 2998 [6]; read-out: pGI50 (converted),3.89 µM
same,CC50,HCC 2998 [6]; [14],42.7 µM
same,TGI,HCC 2998 [6]; read-out: pTGI (converted),13.5 µM
same,growth at 0.1 µM,SK-MEL-5 [7],98%
same,growth at 1 µM,NCI-H23 [8],96%
same,growth at 0.01 µM,SK-MEL-5 [9],97%
same,growth at 0.1 µM,SW-620,98%
same,growth at 100 µM,HCT-116,-57%
same,growth at 0.01 µM,HL-60(TB) [10],95%
same,IC50,PC-3 [11],2.1 µM
same,GI50,PC-3 [11]; read-out: GI50,2.1 µM
same,CC50,PC-3 [11]; [13],90.3 µM
same,TGI,PC-3 [11]; read-out: TGI,84.2 µM
same,GI50,PC-3 [11]; read-out: pGI50 (converted),2.63 µM
same,CC50,PC-3 [11]; [14],79.4 µM
same,TGI,PC-3 [11]; read-out: pTGI (converted),6.46 µM
same,GI50,M14; read-out: GI50,1.72 µM
same,CC50,M14; [13],55.8 µM
same,TGI,M14; read-out: TGI,38.8 µM
same,GI50,M14; read-out: pGI50 (converted),1.7 µM
same,CC50,M14; [14],8.71 µM
same,TGI,M14; read-out: pTGI (converted),3.89 µM
same,growth at 1 µM,HL-60(TB) [12],113%
same,growth at 1 µM,OVCAR-8,99%
same,growth at 100 µM,SNB-19,-33%
O=C(Nc1cccc(-n2cc(-c3ccncc3)c(-c3cc(O)cc(Cl)c3)n2)c1)Nc1ccc(Cl)c(Cl)c1,growth at 0.01 µM,MDA-MB-468 [1],92%
same,growth at 0.1 µM,SF-268,98%
same,growth at 0.01 µM,SF-295,92%
same,growth at 0.1 µM,LOX IMVI,105%
same,GI50,SK-MEL-28; read-out: GI50,2.14 µM
same,CC50,SK-MEL-28; [13],4.2 µM
same,TGI,SK-MEL-28; read-out: TGI,55.5 µM
same,GI50,SK-MEL-28; read-out: pGI50 (converted),2.14 µM
same,CC50,SK-MEL-28; [14],41.7 µM
same,TGI,SK-MEL-28; read-out: pTGI (converted),5.5 µM
same,GI50,HCT-15; read-out: GI50,2.1 µM
same,CC50,HCT-15; [13],> 100 µM
same,TGI,HCT-15; read-out: TGI,80.4 µM
same,GI50,HCT-15; read-out: pGI50 (converted),2.09 µM
same,CC50,HCT-15; [14],> 100 µM
same,TGI,HCT-15; read-out: pTGI (converted),8.13 µM
same,growth at 100 µM,MDA-MB-468 [2],-17%
same,growth at 0.01 µM,OVCAR-3,103%
same,growth at 0.01 µM,SR,57%
same,GI50,NCI-H23 [3]; read-out: GI50,2.41 µM
same,LC50,NCI-H23 [3]; read-out: LC50,> 100 µM
same,TGI,NCI-H23 [3]; read-out: TGI,62.9 µM
same,GI50,NCI-H23 [3]; read-out: pGI50 (converted),2.4 µM
same,LC50,NCI-H23 [3]; read-out: pLC50 (converted),> 100 µM
same,TGI,NCI-H23 [3]; read-out: pTGI (converted),5.01 µM
same,growth at 0.01 µM,HCC 2998 [4],104%
same,growth at 100 µM,T47D,-39%
same,growth at 100 µM,PC-3 [5],-35%
same,growth at 1 µM,HOP-62,97%
same,growth at 1 µM,HT-29,96%
same,growth at 100 µM,MOLT-4,-10%
same,growth at 0.01 µM,NCI-H460,102%
same,GI50,HCC 2998 [6]; read-out: GI50,2.93 µM
same,CC50,HCC 2998 [6]; [13],7.51 µM
same,TGI,HCC 2998 [6]; read-out: TGI,89.9 µM
same,GI50,HCC 2998 [6]; read-out: pGI50 (converted),2.95 µM
same,CC50,HCC 2998 [6]; [14],77.6 µM
same,TGI,HCC 2998 [6]; read-out: pTGI (converted),8.91 µM
same,growth at 0.1 µM,SK-MEL-5 [7],92%
same,growth at 1 µM,NCI-H23 [8],96%
same,growth at 0.01 µM,SK-MEL-5 [9],95%
same,growth at 0.1 µM,SW-620,99%
same,growth at 100 µM,HCT-116,-61%
same,growth at 0.01 µM,HL-60(TB) [10],93%
same,IC50,PC-3 [11],1.69 µM
same,GI50,PC-3 [11]; read-out: GI50,1.59 µM
same,CC50,PC-3 [11]; [13],> 100 µM
same,TGI,PC-3 [11]; read-out: TGI,58.8 µM
same,GI50,PC-3 [11]; read-out: pGI50 (converted),1.7 µM
same,CC50,PC-3 [11]; [14],> 100 µM
same,TGI,PC-3 [11]; read-out: pTGI (converted),5.62 µM
same,GI50,M14; read-out: GI50,1.44 µM
same,CC50,M14; [13],7.44 µM
same,TGI,M14; read-out: TGI,32.8 µM
same,GI50,M14; read-out: pGI50 (converted),1.45 µM
same,CC50,M14; [14],7.41 µM
same,TGI,M14; read-out: pTGI (converted),3.31 µM
same,growth at 1 µM,HL-60(TB) [12],106%
same,growth at 1 µM,OVCAR-8,56%
same,growth at 100 µM,SNB-19,-26%
